# Assay results taken from patent US20030149090A1, “Compositions for the treatment of infectious diseases” (priority 2001, published 2003).
# “Also recorded” adds a separate entry of the source.
# Assays:
# NK cells and T cells = test: Flow cytometry assay of lymphocyte apoptosis induced by Hp(2-20)-activated monocytes; assay type: cell-based, human
# Text: (§1) Peripheral blood was obtained from healthy blood donors at Sahlgren's Hospital, Göteborg, Sweden. […] See Hansson et al. 1996. […] J Immunol. 156:427.
# Apoptosis was monitored by use of flow cytometry, as described elsewhere. See Mellqvist et al. 2000. […] Blood. 96:1961-8. T cells or NK cells were gated after exposure to monocytes, and the gate was set to comprise lymphocytes with a reduced forward scatter and an increased right angle scatter characteristic of apoptosis. See Hansson et al. 1996. Two additional methods were used to determine apoptosis in NK cells and T cells: analysis of DNA strand breaks by terminal deoxynucleotidyl transferase-mediated bromolated dUTP nick end labelling of DNA fragments (TUNEL assay) and Annexin V staining, as described elsewhere. See Mellqvist et al.; Hansson et al. 1999. […] J Interferon Cytokine Res. 19:1135-44.
# One million cells were stained with appropriate fluorescein isothiocyanate (FITC)- and phycoerythrin (PE)-conjugated monoclonal antibodies (Becton & Dickinson, Stockholm, Sweden; 10 μl/10^6 cells), as described in detail elsewhere. See Hansson et al. 1999. Cells were analyzed by use of flow cytometry on a FACSort with a Lysys II software program (Becton & Dickinson). Lymphocytes were gated on the basis of forward and right angle scatter. The flow rate was adjusted to <200 cells x s^−1 and at least 5×10^3 cells were analyzed for each sample.
# After incubation, cells in a lymphocyte gate were assayed for morphological features of apoptosis (reduced forward and increased right angle scatter) by use of flow cytometry. In A, data are the frequency of apoptotic CD56^+ (NK; dark gray bars) or CD3ε^+ (T; open bars) after the following treatments:
# Monocytes and/or lymphocytes were prepared as described in Methods. After incubation for 16 hrs, cells in a lymphocyte gate were assayed for morphological features of apoptosis (reduced forward and increased right angle scatter) by use of flow cytometry. Data are the frequency of apoptotic lymphocytes. histamine dihydrochloride, ranitidine, and Hp(2-20) were used at 50 μM, catalase at 100 U/ml, and SOD at 50 U/ml.
# [1] = tested on: NADPH-oxidase activity of monocytes; test: NADPH-oxidase activity of monocytes, isoluminol-enhanced chemiluminescence; assay type: cell-based, human
# Protocol: as §1
# NADPH-oxidase activity was determined using an isoluminol-enhanced chemiluminescence (CL) system that quantitates extracellular reactive oxygen species (ROS). See Dahlgren, C., Karlsson, A. 1999. Respiratory burst in human neutrophils. J Immunol Methods 232:3-14.
# Superoxide anion production in elutriated monocytes was investigated by isoluminol-amplified CL (A). Cells were treated with histamine (50 μM) or the histamine H2 receptor antagonist ranitidine (50 μM).
# Tinea infection = settings: cream, 0.08% by weight, topical four to five times a day
# Text: Treatment of the subjects consists of the topical application of the medication four to five times a day at the lesion site. When treating fungal growths, care is taken not to contaminate new areas with fungal spores.
# microbial infections = settings: 0.08% by weight together with antimicrobial
# Protocol: The ability of the ROM production and release inhibition compounds of the described embodiment to increase the effectiveness of antimicrobials is evaluated in two groups of 10 subjects each. No subjects are suffering from active infections at the initiation of the study. Group I subjects receive the type of antimicrobial used in treating the specific infection according to the dosage given by the manufacturer. […] The healing time of the patient in each group is then monitored.
# Chlamidia trachomatis = settings: ophthalmic solution 0.09% by weight, containing erythromycin, every three hours
# Protocol: A subject presenting an eye infection due to Chlamidia trachomatis is treated with the compositions of the described embodiment using an ophthalmic solution of histamine dihydrochloride at 0.09% by weight of formulation. Commercially available ophthalmic solutions are well known in the art. Additionally, the ophthalmic solution, preferably in drop form, contains erythromycin. Application of the solution to the eye occurs every three hours. A solution containing only the ROM production and release inhibiting compound is given hourly to ease the discomfort of the subject.
# NADPH oxidase = NADPH oxidase (Homo sapiens, UniProt P04839); settings: membrane-bound phagocyte oxidase, substrate; cited from earlier work
# [2] = tested on: Arcanobacterium haemolyticum; settings: reported in the literature; cited from earlier work
# Streptococcus mutans = test: Treatment of dental carries using a toothpaste and mouthwash; assay type: in vivo; settings: toothpaste and mouthwash 0.05% by weight, five times per day for seven days
# Protocol: A subject suffering from dental carries due to Streptococcus mutans is treated with a toothpaste and a mouthwash containing the ROM inhibitory compound NADPH oxidase inhibitor diphenlyeneiodonium in a concentration of 0.05% by weight of formulation. The treatment consists of five tooth brushings with this toothpaste and mouthwash applications per day for a period of seven days.
# Helicobacter pylori = test: Treatment of ulcers caused by Helicobacter pylori, oral controlled release device; assay type: in vivo; settings: in combination with chemotherapeutics
# Protocol: A patient diagnosed with ulcers caused by Helicobacter pylori is treated with the compounds of the described embodiment. A controlled release mechanism is replenished with an effective dose of the ROM inhibitory compound NADPH oxidase inhibitor diphenlyeneiodonium and administered to the patient by oral intake of the device. As the device rests in the patient's stomach it simultaneously delivers the compounds of the described embodiment and decomposes in order to allow excretion from the body. The compounds of the described embodiment are administered in combination with chemotherapeutics typically administered for such an infection, such as amoxycillin, clarithromycin, tetracycline, or metronidazole.
# Streptococcus pneumonia = test: Treatment of Streptococcus pneumonia lung infection using a nebulizer; assay type: in vivo; settings: 0.05% by weight, mist through a nebulizer
# Protocol: A subject diagnosed with Streptococcus pneumonia is treated with compounds of the described embodiment in the form of a nebulizer. The nebulizer is held firmly against the oral-nasal cavities of a patient with a respiratory infection. The nebulizer is used to deliver an aerosol mist as the patient inhales deeply. The aerosol mist contains either solely an effective amount of the preparation herein described or a mixture of the preparation and the chemotherapeutic used often administered for such an infection, such as, cephalexin. The ROM inhibitory compound NADPH oxidase inhibitor diphenlyeneiodonium in a concentration of 0.05% by weight of formulation is delivered as a mist in the patients lungs through a nebulizer.
# [3] = tested on: diarrhea-causing pathogens (Escherichia coli, Salmonella, Shigella or the like); test: Treatment of diarrhea by oral administration of a capsule; assay type: in vivo; settings: capsule 0.8% by weight, three to ten per day for seven to thirty days, with chemotherapeutic
# Protocol: A subject suffering from diarrhea due to any number of pathogenic geni, speci, or strain of Escherichia coli, Proteus mirabilis, Salmonella enteritidis, Klebsiella Yersinia, Shigella, Serratia, Candida, Giardia intestinalis, Cryptosporidium, Vibrio cholera, Campylobacter, Ascaris or the like responsible for gastrointestinal distress in the form of diarrhea or the like is treated with a capsule containing the ROM inhibitory compound NADPH oxidase inhibitor diphenlyeneiodonium in a concentration of 0.8% by weight of formulation in addition to administration of the appropriate chemotherapeutic compound, such as an aminoglycoside, chloramphenicol, trimethoprimsulfa-methoxazole, doxycycline, or a fluoroquinolone. The treatment consists of oral intake of three to ten capsules per day for a period of seven to thirty days (depending the causative agent of the infection).
# S somaliensis = settings: McNeil and Brown 1994; cited from earlier work
# [4] = tested on: NADPH-oxidase activity of monocytes; settings: earlier finding, Bylund et al. 2001; cited from earlier work
# [5] = ranitidine 50 μM with histamine 50 μM
# [6] = histamine 50 μM, catalase 100 U/ml, SOD 50 U/ml, Hp(2-20) 50 μM, 16 hrs
molecule,measurement,setting,value
"Cl.Cl.NCCc1c[nH]cn1 [Histamine, Histamine dihydrochloride]","Protection of NK cells and T cells from monocyte-dependent, Hp(2-20)-induced apoptosis",NK cells and T cells; dihydrochloride,resuced T cells and NK cells from apoptosis; also recorded: protected NK cells/T cells from the monocyte-induced apoptosis; also recorded: prevent the triggering of NK cell and T cell apoptosis; also recorded: protect T cells and NK cells from apoptotic cell death
same,Inhibition of Hp(2-20)-induced oxygen radical formation in monocytes,"[1]; histamine 50 μM, elutriated monocytes, dihydrochloride",markedly inhibited; also recorded: reduce or inhibit
same,Healing time compared to the control group,Tinea infection,decrease in healing time
same,Healing time with antimicrobial plus ROM inhibitory composition versus antimicrobial alone,microbial infections,faster healing time
same,"Time period of bacterial eye infection, damage and discomfort",Chlamidia trachomatis,reduces the time period of bacterial infection
NC(=O)C1=CN([C@@H]2O[C@H](COP(=O)(O)OP(=O)(O)OC[C@H]3O[C@@H](n4cnc5c(N)ncnc54)[C@H](O)[C@@H]3O)[C@@H](O)[C@H]2O)C=CC1 [NADH],Km,NADPH oxidase,450 µM
NC(=O)C1=CN([C@@H]2O[C@H](COP(=O)(O)OP(=O)(O)OC[C@H]3O[C@@H](n4cnc5c(N)ncnc54)[C@H](OP(=O)(O)O)[C@@H]3O)[C@@H](O)[C@H]2O)C=CC1 [NADPH],Km,NADPH oxidase,45 µM
O=C(N[C@H](CO)[C@H](O)c1ccc([N+](=O)[O-])cc1)C(Cl)Cl [chloramphenicol],Susceptibility of A. haemolyticum,[2],uniformly susceptible
c1ccc2c(c1)[I+]c1ccccc1-2 [diphenlyeneiodonium],Treatment of dental carries,Streptococcus mutans,effective in treating the dental carrier
same,Treatment of gastrointestinal ulcers,Helicobacter pylori,effective in expediting the treatment of gastrointestinal ulcers
same,Recovery of a patient with pneumonia,Streptococcus pneumonia,hastens the recovery
same,Treatment of diarrhea,[3],effective in accelerating the treatment of diarrhea
CC[C@H]1OC(=O)[C@H](C)[C@@H](O[C@H]2C[C@@](C)(OC)[C@@H](O)[C@H](C)O2)[C@H](C)[C@@H](O[C@@H]2O[C@H](C)C[C@H](N(C)C)[C@H]2O)[C@](C)(O)C[C@@H](C)C(=O)[C@H](C)[C@@H](O)[C@]1(C)O [erythromycin],In vitro sensitivity of S somaliensis,S somaliensis,sensitive
CC(=O)O[C@H]1C[C@@]2(C)[C@@H](C[C@@H](O)[C@H]3[C@@]4(C)CC[C@@H](O)[C@@H](C)[C@@H]4CC[C@@]32C)/C1=C(\CCC=C(C)C)C(=O)O [fusidic acid],In vitro sensitivity of S somaliensis,S somaliensis,sensitive
same,Susceptibility of A. haemolyticum,[2],uniformly susceptible
"CNC(=C[N+](=O)[O-])NCCSCc1ccc(CN(C)C)o1.Cl [ranitidine, ranitidine hydrochloride]",Effect on the histamine-induced protection of T cells and NK cells from apoptosis,NK cells and T cells; [5],antagonized
same,Effect on histamine's inhibition of Hp(2-20)-induced oxygen radical formation,[1]; [5],reversed the inhibition
[H]/N=C(/N)N[C@H]1[C@H](O)[C@@H](O)[C@H](O[C@@H]2O[C@@H](C)[C@](O)(C=O)[C@H]2O[C@@H]2O[C@@H](CO)[C@H](O)[C@@H](O)[C@@H]2NC)[C@@H](N/C(N)=N\[H])[C@@H]1O [streptomycin],In vitro sensitivity of S somaliensis,S somaliensis,sensitive
NC[C@H]1O[C@H](O[C@H]2[C@H](O)[C@@H](O[C@H]3O[C@H](CO)[C@@H](O)[C@H](N)[C@H]3O)[C@H](N)C[C@@H]2N)[C@H](N)C[C@@H]1O [tobramycin],In vitro sensitivity of S somaliensis,S somaliensis,sensitive
COc1cc(Cc2cnc(N)nc2N)cc(OC)c1OC [trimethoprim],In vitro sensitivity of S somaliensis,S somaliensis,resistant
"AKKVFKRLEKLFSKIQNDK [Hp(2-20), cecropin-like peptide derived from Helicobacter pylori]",Induction of NK cell and T cell apoptosis by monocytes treated with the peptide,"NK cells and T cells; Hp(2-20) 50 μM, lymphocytes + 25% or 50% monocytes, overnight (16 hrs) incubation",induces apoptosis of T lymphocytes with CD3ε^+ phenotype and natural killer cells with CD56^+ phenotype; also recorded: triggers programmed cell death (apoptosis) of NK cells and T cells; also recorded: pronounced in NK cells as well as in CD3ε^+ T cells; also recorded: triggered NK cell and T cell death by apoptosis
same,Superoxide anion formation in phagocytic cells,[4],potently triggers superoxide anion formation
Superoxide dismutase [SOD],"Protection of NK cells and T cells from monocyte-dependent, Hp(2-20)-induced apoptosis",NK cells and T cells; [6],completely prevented
catalase,"Protection of NK cells and T cells from monocyte-dependent, Hp(2-20)-induced apoptosis",NK cells and T cells; [6],completely prevented
